In paper PMC7979765, “trans-Translation inhibitors bind to a novel site on the ribosome and clear Neisseria gonorrhoeae in vivo” (Nature Communications, 2021):
In brackets after ≈: the same amount, converted by molar mass. Several values for one entry are separate records, joined by “and”; a condition that tells them apart may be missing. Equal values may be shown once. Read-outs that look alike come from different tables or passages of the source.

Tests used:
Pseudomonas aeruginosa = test: MIC, microbroth dilution; type: cell-based
[1] = Mammalian cell cytotoxicity (CC50); type: cell-based, human; conditions: human, HeLa cells (ATCC CCL-2)
Description: The half maximal cytotoxic concentration (CC50) of each compound against HeLa cells (ATCC CCL-2) was measured as previously described. […] The mean values for each biological replicate were averaged, and the CC50 was determined using a 4-parameter nonlinear curve fitting algorithm (GraphPad Prism). The average of the CC50s from two biological replicates was calculated and reported.

Staphylococcus aureus = test: MIC, microbroth dilution; type: cell-based
Klebsiella pneumoniae = test: MIC, microbroth dilution; type: cell-based
Escherichia coli = test: microbe, parasite or virus in culture; type: cell-based
Acinetobacter baumannii = test: MIC, microbroth dilution; type: cell-based
trans-translation = test: microbe, parasite or virus in culture; type: cell-based, Escherichia coli; conditions: for Luminescence readout (Envision plate reader) / Luminescence, background subtracted (DMSO control): per replicate
Description: To verify that MBX-4132 retains activity as an inhibitor of trans-translation, we measured its dose-dependent activity against the non-stop luciferase reporter assay strain E. coli SB75 ΔtolC::kan (pluc-trpAt) essentially as described, with modifications. Briefly, serial 1.5-fold dilutions of MBX-4132 in DMSO were transferred to 96-well assay plates (Costar 3195), followed by the addition of 50 µl of an overnight culture of SB75 ΔtolC::kan (pluc-trpAt) that had been diluted to a final OD600 of 0.4 with LB media supplemented with 100 µg ampicillin/ml and 1 mM IPTG. […] The assay plates were incubated at room temperature for 2 h, and 50 µl of BrightGlo (Promega) bioluminescence reagent was added to each well. After 10 min incubation, bioluminescence intensity was measured using an Envision multi-label plate reader (Perkin Elmer). Each assay comprised three technical replicates, and the experiment was repeated three times. The fold induction for each MBX-4132 treated sample as compared to the DMSO-only sample was calculated for each technical replicate, and the average and standard deviation of the three technical was calculated. The IC50 was determined using a 4-parameter nonlinear curve fitting algorithm (GraphPad Prism).

[2] = [Compound] 0.0625 µM, listed as MBX-3535
[3] = [Compound] 0.125 µM, listed as MBX-3535
[4] = [Compound] 0.1875 µM, listed as MBX-3535
[5] = [Compound] 0.25 µM, listed as MBX-3535
[6] = [Compound] 0.375 µM, listed as MBX-3535
[7] = [Compound] 0.5 µM, listed as MBX-3535
[8] = [Compound] 0.75 µM, listed as MBX-3535
[9] = [Compound] 1 µM, listed as MBX-3535
[10] = [Compound] 1.5 µM, listed as MBX-3535

In the case of `O=C(Nc1nnc(-c2ccc(F)cc2)o1)c1ccc(Cl)cc1` [KKL-35, 4-chloro-N-(5-(4-fluorophenyl)-1,3,4-oxadiazol-2-yl)benzamide], the MIC (Pseudomonas aeruginosa; Pseudomonas aeruginosa ATCC 27853, replicates) is reported as ≥32 µg/mL, the MIC (Pseudomonas aeruginosa; Pseudomonas aeruginosa, ATCC27853, Pseudomonas aeruginosa ATCC 27853, replicates, read-out: MIC) is reported as ≥ 32 µg/mL and the MIC (Pseudomonas aeruginosa; Pseudomonas aeruginosa, ATCC27853, strain ATCC 27853, read-out: MIC) is reported as > 32 µg/mL. For the same molecule, the CC50 ([1]; HeLa cytotoxicity, one value per replicate) was 30.5 µM, the CC50 ([1]; half-maximal cytotoxic concentration against HeLa cells) was > 100 µM and the MIC (Staphylococcus aureus; Staphylococcus aureus ATCC 25923, replicates) was 1 µg/mL (≈ 3.15 µM). It also gave an MIC (Staphylococcus aureus; Staphylococcus aureus ATCC 35556, replicates) of 1 µg/mL (≈ 3.15 µM), an MIC (Staphylococcus aureus; Staphylococcus aureus BAA-1717, replicates) of 1 µg/mL (≈ 3.15 µM) and an MIC (Staphylococcus aureus; Staphylococcus aureus MRSA-1094, replicates) of 1 µg/mL (≈ 3.15 µM). For the same molecule, the MIC (Staphylococcus aureus; Staphylococcus aureus MRSA-1234547263, replicates) was 1 µg/mL (≈ 3.15 µM), the MIC (Staphylococcus aureus; Staphylococcus aureus MSSA, replicates) was 1 µg/mL (≈ 3.15 µM) and the MIC (Staphylococcus aureus; Staphylococcus aureus N315, NRS-70, replicates) was 1 µg/mL (≈ 3.15 µM). The MIC (Staphylococcus aureus; Staphylococcus aureus NRS-77, replicates) was 1 µg/mL (≈ 3.15 µM), the MIC (Staphylococcus aureus; Staphylococcus aureus THC1516, replicates) was 1 µg/ml (4×) and 0.5 µg/ml and the MIC (Staphylococcus aureus; Staphylococcus aureus, ATCC25923, Staphylococcus aureus ATCC 25923, replicates, read-out: MIC) was 1 µg/mL (≈ 3.15 µM). It also gave an MIC (Staphylococcus aureus; Staphylococcus aureus, ATCC25923, strain ATCC 25923, read-out: MIC) of 1 µg/mL (≈ 3.15 µM), an MIC (Staphylococcus aureus; Staphylococcus aureus, ATCC35556, Staphylococcus aureus ATCC 35556, replicates, read-out: MIC) of 1 µg/mL (≈ 3.15 µM) and an MIC (Staphylococcus aureus; Staphylococcus aureus, ATCC35556, strain ATCC 35556, read-out: MIC) of 1 µg/mL (≈ 3.15 µM). For the same molecule, the MIC (Staphylococcus aureus; Staphylococcus aureus, BAA1717, Staphylococcus aureus BAA-1717, replicates, read-out: MIC) was 1 µg/mL (≈ 3.15 µM), the MIC (Staphylococcus aureus; Staphylococcus aureus, BAA-1717 / MRSA, strain BAA-1717, MRSA, read-out: MIC) was 1 µg/mL (≈ 3.15 µM) and the MIC (Staphylococcus aureus; Staphylococcus aureus, MRSA / NRS 70, strain N315, NRS-70, MRSA, read-out: MIC) was 1 µg/mL (≈ 3.15 µM). It also gave an MIC (Staphylococcus aureus; Staphylococcus aureus, MRSA, Staphylococcus aureus MRSA-1094, replicates, read-out: MIC) of 1 µg/mL (≈ 3.15 µM), an MIC (Staphylococcus aureus; Staphylococcus aureus, MRSA, Staphylococcus aureus MRSA-1234547263, replicates, read-out: MIC) of 1 µg/mL (≈ 3.15 µM) and an MIC (Staphylococcus aureus; Staphylococcus aureus, MRSA, strain MRSA-1094, MRSA, read-out: MIC) of 1 µg/mL (≈ 3.15 µM). The MIC (Staphylococcus aureus; Staphylococcus aureus, MRSA, strain MRSA-1234547263, MRSA, read-out: MIC) was 1 µg/mL (≈ 3.15 µM), the MIC (Staphylococcus aureus; Staphylococcus aureus, MRSA, strain THC1516, MRSA, read-out: MIC) was 0.9 µg/mL (≈ 2.83 µM) and the MIC (Staphylococcus aureus; Staphylococcus aureus, MSSA, Staphylococcus aureus MSSA, replicates, read-out: MIC) was 1 µg/mL (≈ 3.15 µM). The MIC (Staphylococcus aureus; Staphylococcus aureus, MSSA, strain MSSA, read-out: MIC) was 1 µg/mL (≈ 3.15 µM), the MIC (Staphylococcus aureus; Staphylococcus aureus, NRS70, Staphylococcus aureus N315, NRS-70, replicates, read-out: MIC) was 1 µg/mL (≈ 3.15 µM) and the MIC (Staphylococcus aureus; Staphylococcus aureus, NRS77, Staphylococcus aureus NRS-77, replicates, read-out: MIC) was 1 µg/mL (≈ 3.15 µM). For the same molecule, the MIC (Staphylococcus aureus; Staphylococcus aureus, NRS77, strain NRS-77, read-out: MIC) was 1 µg/mL (≈ 3.15 µM), the MIC (Staphylococcus aureus; Staphylococcus aureus, Staphylococcus aureus THC1516, replicates, read-out: MIC) was 1 µg/mL (≈ 3.15 µM) and the MIC (Klebsiella pneumoniae; Klebsiella pneumoniae ATCC 13883, replicates) was ≥32 µg/mL. The MIC (Klebsiella pneumoniae; Klebsiella pneumoniae, ATCC13883, strain ATCC 13883, read-out: MIC) was ≥ 32 µg/mL, the MIC (Escherichia coli; Escherichia coli KLE700, replicates) was ≥32 µg/mL and the MIC (Escherichia coli; Escherichia coli KLE701 (ΔtolC), replicates) was 0.50 µg/mL (≈ 1.57 µM). The MIC (Escherichia coli; Escherichia coli, E. coli KLE701 (ΔtolC::tet), source data, individual replicates) was 0.496 µg/mL (≈ 1.56 µM), the MIC (Escherichia coli; Escherichia coli, Escherichia coli KLE700, replicates, read-out: MIC) was ≥ 32 µg/mL and the MIC (Escherichia coli; Escherichia coli, Escherichia coli KLE701 (ΔtolC), replicates) was 0.5 µg/mL (≈ 1.57 µM). For the same molecule, the MIC (Escherichia coli; Escherichia coli, strain KLE700, read-out: MIC) was ≥ 32 µg/mL, the MIC (Escherichia coli; Escherichia coli, strain KLE701, KLE700 ΔtolC::tet) was 0.5 µg/mL (≈ 1.57 µM) and the MIC (Acinetobacter baumannii; Acinetobacter baumannii ATCC 19606, replicates) was ≥32 µg/mL. The MIC (Acinetobacter baumannii; Acinetobacter baumannii, ATCC19606, Acinetobacter baumannii ATCC 19606, replicates, read-out: MIC) was ≥ 32 µg/mL, the MIC (Acinetobacter baumannii; Acinetobacter baumannii, ATCC19606, strain ATCC 19606, read-out: MIC) was > 32 µg/mL and the IC50 (trans-translation; Eco Luc reporter, one value per replicate, listed as MBX-3535, read-out: IC50) was 0.138 µM and 0.151 µM. For the same molecule, the IC50 (trans-translation; Escherichia coli, E. coli non-stop luciferase reporter, Fig. 1B, read-out: in vivo luc-trpAt IC50) was 0.1 µM, the IC50 (trans-translation; Escherichia coli, Eco Luc reporter, one value per replicate, read-out: IC50) was 0.156 µM and the “Luminescence readout (Envision plate reader)” value (“Luminescence readout” below) (trans-translation; [Compound] 0.046875 µM, listed as MBX-3535) was 793720 and 792160 and 789800. The “Luminescence readout” value (trans-translation; [2]) was 778080 and 758560 and 769120, the “Luminescence, background subtracted (DMSO control)” value (“Luminescence, background subtracted” below) (trans-translation; [2]) was -25080 and -11160 and -10320 and the “Luminescence readout” value (trans-translation; [Compound] 0.09375 µM, listed as MBX-3535) was 796160 and 783440 and 809640. The “Luminescence readout” value (trans-translation; [3]) was 838680 and 824680 and 839280, the “Luminescence, background subtracted” value (trans-translation; [3]) was 35520 and 54960 and 59840 and the “Luminescence readout” value (trans-translation; [4]) was 931120 and 911280 and 917880. For the same molecule, the “Luminescence, background subtracted” value (trans-translation; [4]) was 127960 and 141560 and 138440, the “Luminescence readout” value (trans-translation; [5]) was 975560 and 925440 and 953800 and the “Luminescence, background subtracted” value (trans-translation; [5]) was 172400 and 155720 and 174360. For the same molecule, the “Luminescence readout” value (trans-translation; [6]) was 918760 and 868800 and 899520, the “Luminescence, background subtracted” value (trans-translation; [6]) was 115600 and 99080 and 120080 and the “Luminescence readout” value (trans-translation; [7]) was 894760 and 832920 and 864960. For the same molecule, the “Luminescence, background subtracted” value (trans-translation; [7]) was 91600 and 63200 and 85520, the “Luminescence readout” value (trans-translation; [8]) was 938080 and 885720 and 902440 and the “Luminescence, background subtracted” value (trans-translation; [8]) was 134920 and 116000 and 123000. For the same molecule, the “Luminescence readout” value (trans-translation; [9]) was 1090520 and 985400 and 1035440, the “Luminescence, background subtracted” value (trans-translation; [9]) was 287360 and 215680 and 256000 and the “Luminescence readout” value (trans-translation; [10]) was 1101720 and 996520 and 1037480. The “Luminescence, background subtracted” value (trans-translation; [10]) was 298560 and 226800 and 258040.
